Laboratory results from patent US9988379B2, “GPR40 receptor agonist, methods of preparing the same, and pharmaceutical compositions containing the same as an active agent” (LG CHEM, LTD., priority 2012, dated 2018).

Biological target: T1, human GPR40 (Homo sapiens, UniProt O14842)
T1 construct: expressed in transfected cells; host or cells: CHO-K1
Test: Induction of Ca2+ (calcium flux assay) using human GPR40 expression cell line
Assay type: cell-based
Conditions: read-out: EC0.5
In short: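 Read-out is intracellular Ca2+ flux on FlexStation after test compounds (DMSO stocks diluted 200-fold in assay buffer) were added to dye-loaded human GPR40/CHO-K1 cells. Cells had been cultured 24 h, then incubated 1 h at 37° C with Calcium 5 dye, HBSS-HEPES pH 7.4; EC0.5 from concentration plot.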

T1 sequence (O14842 whole entry): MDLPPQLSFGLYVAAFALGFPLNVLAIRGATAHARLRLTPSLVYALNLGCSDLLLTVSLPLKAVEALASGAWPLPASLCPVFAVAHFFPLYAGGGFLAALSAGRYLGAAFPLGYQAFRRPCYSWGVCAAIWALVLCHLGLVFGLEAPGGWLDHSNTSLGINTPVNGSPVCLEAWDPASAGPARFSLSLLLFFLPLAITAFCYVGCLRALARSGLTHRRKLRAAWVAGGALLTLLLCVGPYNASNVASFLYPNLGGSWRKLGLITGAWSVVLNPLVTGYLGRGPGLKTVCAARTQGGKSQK

SMILES | EC50
CC(C)n1cc2ccc(COc3ccc([C@H](CC(=O)O)c4ccon4)cc3)cc2n1 [Example 99, (S)-3-[4-(2-isopropyl-2H-indazol-6-ylmethoxy)-phenyl]-3-isoxazol-3-yl-propanoic acid] | 1300 nM
CC(C)n1ncc2ccc(COc3ccc4c(c3)OCC4CC(=O)O)cc21 (stereo not drawn) [Example 100, [6-(1-isopropyl-1H-indazol-6-ylmethoxy)-2,3-dihydro-benzofuran-3-yl]-acetic acid] | 600 nM
Cn1ncc2ccc(COc3ccc([C@H](CC(=O)O)c4ccon4)cc3)cc21 [Example 101, (S)-3-isoxazol-3-yl-3-[4-(1-methyl-1H-indazol-6-ylmethoxy)-phenyl]-propanoic acid] | 90 nM
O=C(O)C[C@@H](c1ccc(OCc2ccc3cn[nH]c3c2)cc1)c1ccon1 [Example 102, (S)-3-[4-(1H-indazol-6-ylmethoxy)-phenyl]-3-isoxazol-3-yl-propanoic acid] | 400 nM
O=C(O)CC1COc2cc(OCc3ccc4cnn(Cc5ccccc5)c4c3)ccc21 (stereo not drawn) [Example 105, [6-(1-benzyl-1H-indazol-6-ylmethoxy)-2,3-dihydro-benzofuran-3-yl]-acetic acid] | 400 nM
O=C(O)CCc1ccc(OCc2ccc3cnn(CC4CCCC4)c3c2)cc1F [Example 107, 3-[4-(1-cyclopentylmethyl-1H-indazol-6-ylmethoxy)-2-fluoro-phenyl]-propanoic acid] | 200 nM
O=C(O)CC1CCc2cc(OCc3ccc4cnn(Cc5ccccc5)c4c3)ccc21 (stereo not drawn) [Example 109, [5-(1-benzyl-1H-indazol-6-ylmethoxy)-indan-1-yl]-acetic acid] | 400 nM
O=C(O)CC1CCCc2cc(OCc3ccc4cnn(Cc5ccccc5)c4c3)ccc21 (stereo not drawn) [Example 110, [6-(1-benzyl-1H-indazol-6-ylmethoxy)-1,2,3,4-tetrahydro-naphthalen-1-yl]-acetic acid] | 200 nM
O=C(O)CC1COc2cc(OCc3ccc4cn(Cc5ccccc5)nc4c3)ccc21 (stereo not drawn) [Example 113, [6-(2-benzyl-2H-indazol-6-ylmethoxy)-2,3-dihydro-benzofuran-3-yl]-acetic acid] | 9100 nM
O=C(O)CC1CCc2cc(OCc3ccc4c(cnn4Cc4ccccc4)c3)ccc21 (stereo not drawn) [Example 118, [5-(1-benzyl-1H-indazol-5-ylmethoxy)-indan-1-yl]-acetic acid] | 200 nM
O=C(O)CC1CCCc2cc(OCc3ccc4c(cnn4Cc4ccccc4)c3)ccc21 (stereo not drawn) [Example 119, [6-(1-benzyl-1H-indazol-5-ylmethoxy)-1,2,3,4-tetrahydro-naphthalen-1-yl]-acetic acid] | 60 nM
O=C(O)CC1COc2cc(OCc3ccc4ccn(Cc5ccccc5)c4n3)ccc21 (stereo not drawn) [Example 121, [6-(1-benzyl-1H-pyrrolo[2,3-b]pyridin-6-ylmethoxy)-2,3-dihydro-benzofuran-3-yl]-acetic acid] | 300 nM
Cc1cc(COc2ccc3c(c2)OCC3CC(=O)O)cc2cnn(Cc3ccccc3)c12 (stereo not drawn) [Example 128, [6-(1-benzyl-7-methyl-1H-indazol-5-ylmethoxy)-2,3-dihydro-benzofuran-3-yl]-acetic acid] | 50 to 500 nM
Cc1cc(COc2ccc3c(c2)OCCC3CC(=O)O)cc2cnn(Cc3ccccc3)c12 (stereo not drawn) [Example 129, [7-(1-benzyl-7-methyl-1H-indazol-5-ylmethoxy)-chroman-4-yl]-acetic acid] | 80 nM
Cc1cc(COc2ccc3c(c2)OCCC3CC(=O)O)cc2cnn(CC(C)C)c12 (stereo not drawn) [Example 131, [7-(1-isobutyl-7-methyl-1H-indazol-5-ylmethoxy)-chroman-4-yl]-acetic acid] | 50 to 500 nM
CC(C)Cn1ncc2cc(COc3ccc4c(c3)OCCC4CC(=O)O)ccc21 (stereo not drawn) [Example 133, [7-(1-isobutyl-1H-indazol-5-ylmethoxy)-chroman-4-yl]-acetic acid] | 400 nM
O=C(O)CC1CCOc2cc(OCc3ccc4c(cnn4CCc4ccccc4)c3)ccc21 (stereo not drawn) [Example 135, [7-(1-phenethyl-1H-indazol-5-ylmethoxy)-chroman-4-yl]-acetic acid] | 200 nM
CC(C)CCn1ncc2cc(COc3ccc4c(c3)OCCC4CC(=O)O)ccc21 (stereo not drawn) [Example 137, {7-[1-(3-methyl-butyl)-1H-indazol-5-ylmethoxy]-chroman-4-yl}-acetic acid] | 50 to 500 nM
O=C(O)CC1CCOc2cc(OCc3ccc4c(cnn4CC4CCCCC4)c3)ccc21 (stereo not drawn) [Example 139, [7-(1-cyclohexyl methyl-1H-indazol-5-ylmethoxy)-chroman-4-yl]-acetic acid] | 300 nM

Now from value to compound:

EC50 | SMILES
50 nM | O=C(O)C[C@@H](c1ccc(OCc2ccc3cnn(CC4CC4)c3c2)cc1)c1ccon1 [Example 97, (S)-3-[4-(1-cyclopropylmethyl-1H-indazol-6-ylmethoxy)-phenyl]-3-isoxazol-3-yl-propanoic acid]
1 to 50 nM | CC(C)Cn1ccc2ccc(COc3ccc([C@H](CC(=O)O)c4ccon4)cc3)nc21 [Example 98, (S)-3-[4-(1-isobutyl-1H-pyrrolo[2,3-b]pyridin-6-ylmethoxy)-phenyl]-3-isoxazol-3-yl-propanoic acid]
10 nM | O=C(O)C[C@@H](c1ccc(OCc2ccc3cnn(CC4CCCC4)c3c2)cc1)c1ccon1 [Example 103, (S)-3-[4-(1-cyclopentylmethyl-1H-indazol-6-ylmethoxy)-phenyl]-3-isoxazol-3-yl-propanoic acid]
1 to 50 nM | O=C(O)CCc1ccc(OCc2ccc3cnn(Cc4ccccc4)c3c2)cc1F [Example 106, 3-[4-(1-benzyl-1H-indazol-6-ylmethoxy)-2-fluoro-phenyl]-propanoic acid]
1 to 50 nM | CC#C[C@@H](CC(=O)O)c1ccc(OCc2ccc3c(cnn3Cc3ccccc3)c2)cc1 [Example 111, (S)-3-[4-(1-benzyl-1H-indazol-5-ylmethoxy)-phenyl]-hex-4-ynoic acid]
1 to 50 nM | CC#C[C@@H](CC(=O)O)c1ccc(OCc2ccc3nn(Cc4ccccc4)cc3c2)cc1 [Example 112, (S)-3-[4-(2-benzyl-2H-indazol-5-ylmethoxy)-phenyl]-hex-4-ynoic acid]
1 to 50 nM | CC#C[C@@H](CC(=O)O)c1ccc(OCc2ccc3cnn(CC(C)C)c3c2)cc1 [Example 114, (S)-3-[4-(1-isobutyl-1H-indazol-6-ylmethoxy)-phenyl]-hex-4-ynoic acid]
1 to 50 nM | CC#C[C@@H](CC(=O)O)c1ccc(OCc2ccc3ccn(CC(C)C)c3n2)cc1 [Example 115, (S)-3-[4-(1-isobutyl-1H-pyrrolo[2,3-b]pyridin-6-ylmethoxy)-phenyl]-hex-4-ynoic acid]
1 to 50 nM | CC#C[C@@H](CC(=O)O)c1ccc(OCc2ccc3c(cnn3C(C)C)c2)cc1 [Example 116, (S)-3-[4-(1-isopropyl-1H-indazol-5-ylmethoxy)-phenyl]-hex-4-ynoic acid]
50 nM | CC(CC(=O)O)c1ccc(OCc2ccc3cnn(Cc4ccccc4)c3c2)cc1 (stereo not drawn) [Example 117, 3-[4-(1-benzyl-1H-indazol-6-ylmethoxy)-phenyl]-butyric acid]
40 nM | O=C(O)CC1CCOc2cc(OCc3ccc4c(cnn4Cc4ccccc4)c3)ccc21 (stereo not drawn) [Example 120, [7-(1-benzyl-1H-indazol-5-ylmethoxy)-chroman-4-yl]-acetic acid]
1 to 50 nM | CC#C[C@@H](CC(=O)O)c1ccc(OCc2cc3c(cnn3Cc3ccccc3)cc2F)cc1 [Example 122, (S)-3-[4-(1-benzyl-5-fluoro-1H-indazol-6-ylmethoxy)-phenyl]-hex-4-ynoic acid]
1 to 50 nM | CC#C[C@@H](CC(=O)O)c1ccc(OCc2ccc3c(ccn3Cc3ccccc3)c2)cc1 [Example 123, (S)-3-[4-(1-benzyl-1H-indol-5-ylmethoxy)-phenyl]-hex-4-ynoic acid]
50 nM | CC#C[C@@H](CC(=O)O)c1ccc(OCc2ccc3c(c2)nnn3Cc2ccccc2)cc1 [Example 124, (S)-3-[4-(1-benzyl-1H-benzotriazol-5-ylmethoxy)-phenyl]-hex-4-ynoic acid]
20 nM | CC#C[C@@H](CC(=O)O)c1ccc(OCc2ccc3c(c2)ncn3Cc2ccccc2)cc1 [Example 125, (S)-3-[4-(1-benzyl-1H-benzoimidazol-5-ylmethoxy)-phenyl]-hex-4-ynoic acid]
1 to 50 nM | CC#C[C@@H](CC(=O)O)c1ccc(OCc2cc(C)c3c(cnn3Cc3ccccc3)c2)cc1 [Example 126, (S)-3-[4-(1-benzyl-7-methyl-1H-indazol-5-ylmethoxy)-phenyl]-hex-4-ynoic acid]
1 to 50 nM | CC#C[C@@H](CC(=O)O)c1ccc(OCc2cc(C)c3nn(Cc4ccccc4)cc3c2)cc1 [Example 127, (S)-3-[4-(2-benzyl-7-methyl-2H-indazol-5-ylmethoxy)-phenyl]-hex-4-ynoic acid]
1 to 50 nM | CC#C[C@@H](CC(=O)O)c1ccc(OCc2cc(C)c3c(cnn3CC(C)C)c2)cc1 [Example 130, (S)-3-[4-(1-isobutyl-7-methyl-1H-indazol-5-ylmethoxy)-phenyl]-hex-4-ynoic acid]
1 to 50 nM | CC#C[C@@H](CC(=O)O)c1ccc(OCc2ccc3c(cnn3CC(C)C)c2)cc1 [Example 132, (S)-3-[4-(1-isobutyl-1H-indazol-5-ylmethoxy)-phenyl]-hex-4-ynoic acid]
4 nM | CC#C[C@@H](CC(=O)O)c1ccc(OCc2ccc3c(cnn3CCc3ccccc3)c2)cc1 [Example 134, (S)-3-[4-(1-phenethyl-1H-indazol-5-ylmethoxy)-phenyl]-hex-4-ynoic acid]
1 to 50 nM | CC#C[C@@H](CC(=O)O)c1ccc(OCc2ccc3c(cnn3CCC(C)C)c2)cc1 [Example 136, (S)-3-{4-[1-(3-methyl-butyl)-1H-indazol-5-ylmethoxy]-phenyl}-hex-4-ynoic acid]
10 nM | CC#C[C@@H](CC(=O)O)c1ccc(OCc2ccc3c(cnn3CC3CCCCC3)c2)cc1 [Example 138, (S)-3-[4-(1-cyclohexylmethyl-1H-indazol-5-ylmethoxy)-phenyl]-hex-4-ynoic acid]
4 nM | CC#C[C@@H](CC(=O)O)c1ccc(OCc2cc(C)c3nn(CC(C)C)cc3c2)cc1 [Example 140, (S)-3-[4-(2-isobutyl-7-methyl-2H-indazol-5-ylmethoxy)-phenyl]-hex-4-ynoic acid]
